According to patent US9580444B2, “Polycyclic pyrazolinone derivative and herbicide comprising same as effective component thereof” (priority 2013, dated 2017):

Columns and labels:
Assay type in all cases: in vivo
[1] = tested on: Amaranthus viridis (green amaranthus); experiment: Test Example-4: herbicidal effect by a foliage treatment after weeds are generated under upland field conditions; details: 500 g a.i/ha, foliage treatment after emergence, about 14 days after treatment, score 0-5
Method in brief: (§1)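 Post-emergence foliar treatment: seedlings raised 14 days in watered upland soil are sprayed with the diluted formulation at a predetermined dose, using a spray volume of 4000 L/ha. Effects on weeds and on corn are rated 0–5 roughly two weeks afterwards.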

[2] = tested on: Chenopodium album (common lambsquarters); experiment: as above; details: 500 g a.i/ha, foliage treatment after emergence, about 14 days after treatment, score 0-5
Method in brief: as §1

[3] = tested on: Abutilon theophrasti (velvetleaf); experiment: as above; details: 500 g a.i/ha, foliage treatment after emergence, about 14 days after treatment, score 0-5
Method in brief: as §1

[4] = tested on: corn; experiment: Test Example-4: phytotoxicity by a foliage treatment after weeds are generated under upland field conditions; details: 500 g a.i/ha, foliage treatment after emergence, about 14 days after treatment, score 0-5
Method in brief: as §1

[5] = tested on: Cyperus difformis (smallflower umbrella plant); experiment: Test Example-1: herbicidal effect by a treatment before weeds are generated under submerged conditions; details: 500 g a.i/ha, pre-emergence treatment, about 15 days after treatment, score 0-5
Method in brief: (§2)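 Scores (0–5, six stages) reflect visual weed control about 15 days after a same-day water application of the diluted formulated compound to freshly seeded, flooded paddy soil.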

[6] = tested on: Scirpus juncoides (bulrush); experiment: as above; details: 500 g a.i/ha, pre-emergence treatment, about 15 days after treatment, score 0-5
Method in brief: as §2

[7] = tested on: other annual broad leaf weeds (Lindernia procumbens, Rotala indica, Elatine triandra); experiment: as above; details: 500 g a.i/ha, pre-emergence treatment, about 15 days after treatment, score 0-5
Method in brief: as §2

[8] = tested on: Echinochloa oryzicola (barnyard grass); experiment: as above; details: 500 g a.i/ha, pre-emergence treatment, about 15 days after treatment, score 0-5
Method in brief: as §2

[9] = tested on: Monochoria vaginalis (monochoria); experiment: as above; details: 500 g a.i/ha, pre-emergence treatment, about 15 days after treatment, score 0-5
Method in brief: as §2

[10] = tested on: Eleocharis acicularis (needle spikerush); experiment: as above; details: 500 g a.i/ha, pre-emergence treatment, about 15 days after treatment, score 0-5
Method in brief: as §2

Row | SMILES | Herbicidal effect Amaranthus viridis [1] | Herbicidal effect Chenopodium album [2] | Herbicidal effect Abutilon theophrast [3] | Phytotoxicity Corn [4] | Herbicidal effect Cyperus difformis [5] | Herbicidal effect Scirpus juncoides [6] | Herbicidal effect Broadleaf weed [7] | Herbicidal effect Echinochloa oryzicola [8] | Herbicidal effect Monochoria vaginalis [9] | Herbicidal effect Eleocharis acicularis [10]
1 | N#CCOc1cc(-c2c(Cl)n3n(c2=O)CCCC3)c(F)cc1Cl [Example 1-171] | 5 (Herbicidal effect/phytotoxicity was 90% or greater) | 5 (Herbicidal effect/phytotoxicity was 90% or greater) | 5 (Herbicidal effect/phytotoxicity was 90% or greater) | 3 (Herbicidal effect/phytotoxicity was 50% to 70%) | 5 (Herbicidal effect/phytotoxicity was 90% or greater) | 5 (Herbicidal effect/phytotoxicity was 90% or greater) | 5 (Herbicidal effect/phytotoxicity was 90% or greater) | 5 (Herbicidal effect/phytotoxicity was 90% or greater) | 5 (Herbicidal effect/phytotoxicity was 90% or greater) | 5 (Herbicidal effect/phytotoxicity was 90% or greater)
2 | O=c1c(-c2cc(OCC3CC3)c(Cl)cc2F)c(Cl)n2n1CCCC2 [Example 1-176] | 5 (Herbicidal effect/phytotoxicity was 90% or greater) | 5 (Herbicidal effect/phytotoxicity was 90% or greater) | 5 (Herbicidal effect/phytotoxicity was 90% or greater) | 2 (Herbicidal effect/phytotoxicity was 30% to 50%) | 5 (Herbicidal effect/phytotoxicity was 90% or greater) | 5 (Herbicidal effect/phytotoxicity was 90% or greater) | 5 (Herbicidal effect/phytotoxicity was 90% or greater) | 5 (Herbicidal effect/phytotoxicity was 90% or greater) | 5 (Herbicidal effect/phytotoxicity was 90% or greater) | 5 (Herbicidal effect/phytotoxicity was 90% or greater)
3 | O=c1c(-c2cc(OCC3CCCCC3)c(Cl)cc2F)c(Cl)n2n1CCCC2 [Example 1-188] | 5 (Herbicidal effect/phytotoxicity was 90% or greater) | 5 (Herbicidal effect/phytotoxicity was 90% or greater) | 5 (Herbicidal effect/phytotoxicity was 90% or greater) | 0 (Herbicidal effect/phytotoxicity was 0% to 10%) | 5 (Herbicidal effect/phytotoxicity was 90% or greater) | 5 (Herbicidal effect/phytotoxicity was 90% or greater) | 5 (Herbicidal effect/phytotoxicity was 90% or greater) | 5 (Herbicidal effect/phytotoxicity was 90% or greater) | 5 (Herbicidal effect/phytotoxicity was 90% or greater) | 5 (Herbicidal effect/phytotoxicity was 90% or greater)
4 | O=c1c(-c2cc(OCc3ccc(F)cc3)c(Cl)cc2F)c(Cl)n2n1CCCC2 [Example 1-192] | 5 (Herbicidal effect/phytotoxicity was 90% or greater) | 5 (Herbicidal effect/phytotoxicity was 90% or greater) | 5 (Herbicidal effect/phytotoxicity was 90% or greater) | 1 (Herbicidal effect/phytotoxicity was 10% to 30%) | 5 (Herbicidal effect/phytotoxicity was 90% or greater) | 5 (Herbicidal effect/phytotoxicity was 90% or greater) | 5 (Herbicidal effect/phytotoxicity was 90% or greater) | 5 (Herbicidal effect/phytotoxicity was 90% or greater) | 5 (Herbicidal effect/phytotoxicity was 90% or greater) | 5 (Herbicidal effect/phytotoxicity was 90% or greater)
5 | C=CCOc1cc(-c2c(Cl)n3n(c2=O)CCCC3)c(F)cc1Cl [Example 1-201] | 5 (Herbicidal effect/phytotoxicity was 90% or greater) | 5 (Herbicidal effect/phytotoxicity was 90% or greater) | 5 (Herbicidal effect/phytotoxicity was 90% or greater) | 2 (Herbicidal effect/phytotoxicity was 30% to 50%) | 5 (Herbicidal effect/phytotoxicity was 90% or greater) | 5 (Herbicidal effect/phytotoxicity was 90% or greater) | 5 (Herbicidal effect/phytotoxicity was 90% or greater) | 5 (Herbicidal effect/phytotoxicity was 90% or greater) | 5 (Herbicidal effect/phytotoxicity was 90% or greater) | 5 (Herbicidal effect/phytotoxicity was 90% or greater)
6 | CC=CCOc1cc(-c2c(Cl)n3n(c2=O)CCCC3)c(F)cc1Cl [Example 1-209] | 5 (Herbicidal effect/phytotoxicity was 90% or greater) | 5 (Herbicidal effect/phytotoxicity was 90% or greater) | 5 (Herbicidal effect/phytotoxicity was 90% or greater) | 2 (Herbicidal effect/phytotoxicity was 30% to 50%) | 5 (Herbicidal effect/phytotoxicity was 90% or greater) | 5 (Herbicidal effect/phytotoxicity was 90% or greater) | 5 (Herbicidal effect/phytotoxicity was 90% or greater) | 5 (Herbicidal effect/phytotoxicity was 90% or greater) | 5 (Herbicidal effect/phytotoxicity was 90% or greater) | 5 (Herbicidal effect/phytotoxicity was 90% or greater)
7 | CC(C)=CCOc1cc(-c2c(Cl)n3n(c2=O)CCCC3)c(F)cc1Cl [Example 1-219] | 5 (Herbicidal effect/phytotoxicity was 90% or greater) | 5 (Herbicidal effect/phytotoxicity was 90% or greater) | 5 (Herbicidal effect/phytotoxicity was 90% or greater) | 2 (Herbicidal effect/phytotoxicity was 30% to 50%) | 5 (Herbicidal effect/phytotoxicity was 90% or greater) | 5 (Herbicidal effect/phytotoxicity was 90% or greater) | 5 (Herbicidal effect/phytotoxicity was 90% or greater) | 5 (Herbicidal effect/phytotoxicity was 90% or greater) | 5 (Herbicidal effect/phytotoxicity was 90% or greater) | 5 (Herbicidal effect/phytotoxicity was 90% or greater)
8 | C=CCCOc1cc(-c2c(Cl)n3n(c2=O)CCCC3)c(F)cc1Cl [Example 1-222] | 5 (Herbicidal effect/phytotoxicity was 90% or greater) | 5 (Herbicidal effect/phytotoxicity was 90% or greater) | 5 (Herbicidal effect/phytotoxicity was 90% or greater) | 2 (Herbicidal effect/phytotoxicity was 30% to 50%) | 5 (Herbicidal effect/phytotoxicity was 90% or greater) | 5 (Herbicidal effect/phytotoxicity was 90% or greater) | 5 (Herbicidal effect/phytotoxicity was 90% or greater) | 5 (Herbicidal effect/phytotoxicity was 90% or greater) | 5 (Herbicidal effect/phytotoxicity was 90% or greater) | 5 (Herbicidal effect/phytotoxicity was 90% or greater)
9 | O=c1c(-c2cc(OCC=Cc3ccc(F)cc3)c(Cl)cc2F)c(Cl)n2n1CCCC2 [Example 1-226] | 5 (Herbicidal effect/phytotoxicity was 90% or greater) | 5 (Herbicidal effect/phytotoxicity was 90% or greater) | 5 (Herbicidal effect/phytotoxicity was 90% or greater) | 3 (Herbicidal effect/phytotoxicity was 50% to 70%) | 5 (Herbicidal effect/phytotoxicity was 90% or greater) | 5 (Herbicidal effect/phytotoxicity was 90% or greater) | 5 (Herbicidal effect/phytotoxicity was 90% or greater) | 5 (Herbicidal effect/phytotoxicity was 90% or greater) | 5 (Herbicidal effect/phytotoxicity was 90% or greater) | 5 (Herbicidal effect/phytotoxicity was 90% or greater)
10 | CC#CCOc1cc(-c2c(Cl)n3n(c2=O)CCCC3)c(F)cc1Cl [Example 1-246] | 5 (Herbicidal effect/phytotoxicity was 90% or greater) | 5 (Herbicidal effect/phytotoxicity was 90% or greater) | 5 (Herbicidal effect/phytotoxicity was 90% or greater) | 1 (Herbicidal effect/phytotoxicity was 10% to 30%) | 5 (Herbicidal effect/phytotoxicity was 90% or greater) | 5 (Herbicidal effect/phytotoxicity was 90% or greater) | 5 (Herbicidal effect/phytotoxicity was 90% or greater) | 5 (Herbicidal effect/phytotoxicity was 90% or greater) | 5 (Herbicidal effect/phytotoxicity was 90% or greater) | 5 (Herbicidal effect/phytotoxicity was 90% or greater)
